What follows are compounds tested on HBV rcDNA in HepDE19 cells (assay: HepDE19 assay with bDNA quantitation of HBV rcDNA). Conditions: Hepatitis B virus, HepDE19, 168 h, inhibition of rcDNA formation in HepDE19 cells (HepG2 derived), Tet-free medium, 7 day incubation, Quantigene 2.0 bDNA readout, top concentration 25 μM; read-out: DE-19bDNA EC50.
Type: cell-based, hepatitis B virus (HBV)
In short: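 HepDE19 cells (HepG2-derived, Tet-regulated HBV) switched to Tet-free medium, then treated 7 days at 37 °C with compound, 8-point titration from 25 μM, 0.5% DMSO. rcDNA quantified by bDNA with HBV probes; EC50/EC90 via 4-parameter fit. Viability (CC50) by CellTiter-Glo ATP on 5,000 cells/well after 4 days.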

Row | SMILES | EC50
1 | CN(C(=O)Nc1ccc(F)c(C#N)c1)C1CS(=O)(=O)Cc2[nH]c(=O)c3cc(F)ccc3c21 (racemic) [Compound 215, 3-(3-Cyano-4-fluorophenyl)-1-(8-fluoro-3,3-dioxido-6-oxo-1,4,5,6-tetrahydro-2H-thiopyrano[3,4-c]isoquinolin-1-yl)-1-methylurea] | ≥ 25 µM
2 | CN(C(=O)N1Cc2ccc(F)cc2C1)[C@@H]1COCc2[nH]c(=O)c3cc(F)c(F)cc3c21 [Compound 221, (S)—N-(8,9-Difluoro-6-oxo-1,4,5,6-tetrahydro-2H-pyrano[3,4-c]isoquinolin-1-yl)-5-fluoro-N-methylisoindoline-2-carboxamide] | 5.9 µM
3 | CC(C)CN(C(=O)Nc1ccc(F)c(Cl)c1)C1CCc2[nH]c(=O)cc(C(F)(F)F)c21 (centres unmarked) [Compound 4, 3-(3-Chloro-4-fluorophenyl)-1-isobutyl-1-(2-oxo-4-(trifluoromethyl)-2,5,6,7-tetrahydro-1H-cyclopenta[b]pyridin-5-yl)urea] | 0.91 µM
4 | O=C(Nc1ccc(F)c(Cl)c1)N[C@@H]1COCc2[nH]c(=O)c3cc(F)c(F)cc3c21 (single isomer, unassigned) [Compound 68] | 0.03 µM
5 | CN(C(=O)Nc1ccc(F)c(Cl)c1)C1COCc2[nH]c(=O)c3ccc(F)cc3c21 (centres unmarked) [Compound 73, 3-(3-Chloro-4-fluorophenyl)-1-(9-fluoro-6-oxo-1,4,5,6-tetrahydro-2H-pyrano[3,4-c]isoquinolin-1-yl)-1-methylurea] | 0.02 µM
6 | CN(C(=O)Nc1ccc(F)c(C#N)c1)C1COCc2[nH]c(=O)c3ccc(F)cc3c21 (centres unmarked) [Compound 77, 3-(3-Cyano-4-fluorophenyl)-1-(9-fluoro-6-oxo-1,4,5,6-tetrahydro-2H-pyrano[3,4-c]isoquinolin-1-yl)-1-methylurea] | 0.05 µM
7 | CN(C(=O)Nc1ccc(F)c(C(F)F)c1)[C@H]1COCc2[nH]c(=O)c3cc(F)c(F)cc3c21 (single isomer, unassigned) [Compound 125] | 0.49 µM
8 | CN(C(=O)Nc1ccc(F)c(C(F)F)c1)C1COCc2nc(NCCN)c3cc(F)c(F)cc3c21 (racemic) [Compound 239, 1-(6-((2-Aminoethyl)amino)-8,9-difluoro-1,4-dihydro-2H-pyrano[3,4-c]isoquinolin-1-yl)-3-(3-(difluoromethyl)-4-fluorophenyl)-1-methylurea] | 0.3 µM
9 | CN(C(=O)Nc1ccc(F)c(C(F)F)c1)[C@@H]1COCc2nc(OCCO)c3cc(F)c(F)cc3c21 [Compound 256, (S)-1-(8,9-Difluoro-6-(2-hydroxyethoxy)-1,4-dihydro-2H-pyrano[3,4-c]isoquinolin-1-yl)-3-(3-(difluoromethyl)-4-fluorophenyl)-1-methylurea] | 0.019 µM
10 | CC(C)CN(C(=O)Nc1ccc(F)c(Cl)c1)C1CCc2[nH]c(=O)c3ccccc3c21 (centres unmarked) [Compound 13, 3-(3-Chloro-4-fluorophenyl)-1-isobutyl-1-(5-oxo-2,3,4,5-tetrahydro-1H-cyclopenta[c]isoquinolin-1-yl)urea] | 1.3 µM
11 | CN(C(=O)Nc1ccc(F)c(Cl)c1)C1COCc2[nH]c(=O)c3ccccc3c21 (racemic) [Compound 18, 3-(3-Chloro-4-fluorophenyl)-1-methyl-1-(6-oxo-1,4,5,6-tetrahydro-2H-pyrano[3,4-c]isoquinolin-1-yl)urea] | 0.03 µM

Same assay, conditions: inhibition of rcDNA formation in HepDE19 cells (HepG2 derived), Tet-free medium, 7 day incubation, Quantigene 2.0 bDNA readout, top concentration 25 μM; read-out: DE-19bDNA EC50

Row | SMILES | EC50
12 | CN(C(=O)Nc1ccc(F)c(Cl)c1)C1COCc2nc(NCCO)c3cc(F)c(F)cc3c21 (single isomer, unassigned) [Compound 245, 3-(3-Chloro-4-fluorophenyl)-1-(8,9-difluoro-6-((2-hydroxyethyl)amino)-1,4-dihydro-2H-pyrano[3,4-c]isoquinolin-1-yl)-1-methylurea] | 4.2 µM
13 | CN(C(=O)Nc1ccc(F)c(Cl)c1)C1C[S+]([O-])Cc2[nH]c(=O)c3cc(F)ccc3c21 (single isomer, unassigned) [Compound 195] | 0.9 µM
14 | CN(C(=O)Nc1ccc(F)c(C#N)c1)C1CSCc2[nH]c(=O)c3cc(F)ccc3c21 (single isomer, unassigned) [Compound 186, 3-(3-Cyano-4-fluorophenyl)-1-(8-fluoro-6-oxo-1,4,5,6-tetrahydro-2H-thiopyrano[3,4-c]isoquinolin-1-yl)-1-methylurea] | 0.06 µM
15 | CN(C(=O)N1Cc2ccc(Br)cc2C1)C1CNCc2[nH]c(=O)c3cc(F)c(F)cc3c21 (single isomer, unassigned) [Compound 229, 5-Bromo-N-(8,9-difluoro-6-oxo-1,2,3,4,5,6-hexahydrobenzo[c][1,7]naphthyridin-1-yl)-N-methylisoindoline-2-carboxamide] | 6.7 µM
16 | NS(=O)(=O)CCN(C(=O)Nc1ccc(F)c(Cl)c1)C1COCc2[nH]c(=O)c3cc(F)c(F)cc3c21 (single isomer, unassigned) [Compound 137, 2-(3-(3-Chloro-4-fluorophenyl)-1-(8,9-difluoro-6-oxo-1,4,5,6-tetrahydro-2H-pyrano[3,4-c]isoquinolin-1-yl)ureido)ethane-1-sulfonamide] | 0.01 µM
17 | CN(C(=O)Nc1ccc(F)c(C#N)c1)C1CSCc2[nH]c(=O)c3cc(F)c(F)cc3c21 (single isomer, unassigned) [Compound 190, 3-(3-Cyano-4-fluorophenyl)-1-(8,9-difluoro-6-oxo-1,4,5,6-tetrahydro-2H-thiopyrano[3,4-c]isoquinolin-1-yl)-1-methylurea] | 0.02 µM
18 | CN(C(=O)Nc1ccc(F)c(C#N)c1)C1CNCc2[nH]c(=O)c3cc(F)ccc3c21 (single isomer, unassigned) [Compound 162, 3-(3-Cyano-4-fluorophenyl)-1-(8-fluoro-6-oxo-1,2,3,4,5,6-hexahydrobenzo[c][1,7]naphthyridin-1-yl)-1-methylurea] | 0.17 µM
19 | CN(C(=O)Nc1ccc(F)c(Cl)c1)C1COCc2[nH]c(=O)c3c(c21)CCOC3 (single isomer, unassigned) [Compound 92, 3-(3-Chloro-4-fluorophenyl)-1-methyl-1-(6-oxo-1,2,4,5,6,7,9,10-octahydrodipyrano[3,4-b:4′,3′-d]pyridin-1-yl)urea] | 0.15 µM
20 | CNc1nc2c(c3cc(F)c(F)cc13)C(N(C)C(=O)Nc1ccc(F)c(Cl)c1)COC2 (single isomer, unassigned) [Compound 241, 3-(3-Chloro-4-fluorophenyl)-1-(8,9-difluoro-6-(methylamino)-1,4-dihydro-2H-pyrano[3,4-c]isoquinolin-1-yl)-1-methylurea] | 2.38 µM
21 | CC(C)CN(C(=O)Nc1ccc(F)c(F)c1)C1COCc2[nH]c(=O)c3cc(F)ccc3c21 (single isomer, unassigned) [Compound 100, 3-(3,4-Difluorophenyl)-1-(8-fluoro-6-oxo-2,4,5,6-tetrahydro-1H-pyrano[3,4-c]isoquinolin-1-yl)-1-isobutylurea] | 0.43 µM
22 | CN(C(=O)Nc1ccc(F)c(C#N)c1)C1CNCc2[nH]c(=O)c3cc(F)ccc3c21 (single isomer, unassigned) [Compound 161, 3-(3-Cyano-4-fluorophenyl)-1-(8-fluoro-6-oxo-1,2,3,4,5,6-hexahydrobenzo[c][1,7]naphthyridin-1-yl)-1-methylurea] | 17 µM

Same assay, conditions: read-out: DE-19bDNA EC50; inhibition of rcDNA formation in HepDE19 cells (HepG2 derived), Tet-free medium, 7 day incubation, Quantigene 2.0 bDNA readout, top concentration 25 μM

Row | SMILES | EC50
23 | CN(C(=O)Nc1cccc(Cl)c1)C1COCc2[nH]c(=O)c3cc(F)c(F)cc3c21 (single isomer, unassigned) [Compound 120, 3-(3-Chlorophenyl)-1-(8,9-difluoro-6-oxo-1,4,5,6-tetrahydro-2H-pyrano[3,4-c]isoquinolin-1-yl)-1-methylurea] | 0.01 µM

Source: US20230108906A1, “SUBSTITUTED BICYCLIC AND TRICYCLIC UREAS AND AMIDES, ANALOGUES THEREOF, AND METHODS USING SAME” (Arbutus Biopharma Corporation, priority 2019, published 2023)
